Laboratory results reported in US7341867B2, “Human preprotachykinin gene promoter” (University of Medicine & Dentistry of New Jersey, priority 1999, dated 2008).

B1: IL-1a: cytokine IL-1α obtained from Hoffman LaRoche (protein, UniProt P01583 113-271, looked up)
Interleukin-1 alpha: SAPFSFLSNVKYNFMRIIKYEFILNDALNQSIIRANDQYLTAAALHNLDEAVKFDMGAYKSSKDDAKITVILRISKTQLYVTAQDEDQPVLLKEMPEIPKTITGSETNLLFFWETHGTKNYFTSVAHPNLFIATKQDYWVCLAGGPPSITDFQILENQA

Experiments:
[1] = test system: PPT-I promoter (Upstream/N0); assay: Luciferase reporter gene assay, pGL3-Upstream/N0 in transfected bone marrow stroma; type: cell-based, human
Description: (§1) Transfected bone marrow stroma was stimulated with optimal concentrations of IL-1α (2.5 ng/ml), SCF (8 ng/ml) or 1 nM substance P, SP (Sigma, St Louis, Mo.) and/or 10 nM NK-1-specific antagonist (CP-99,994) in α-MEM with 2% FCS. In other embodiments, bone marrow stroma was stimulated with 5 μg/ml forskolin, FK (Sigma) for 2 and 5 h. SCF was purchased from R&D Systems (Minneapolis, Minn.) and IL-1α was obtained from Hoffman LaRoche, Nutley, N.J. Pfizer, Inc. (Groton, Conn.) provided CP-99,994. Substance P and CP-99,994 were dissolved and stored as described in Ramewshwar et al (1996), supra. Optimal parameters were determined with dose-response and time-course studies.
pGL3-basic with inserts of different fragments from PPT-I-p1.2 was co-transfected with pβ-gal-Control (0.5 μg each) in 80% confluent bone marrow stroma using SuperFect (Qiagen, Valencia, Calif.). After 48 h cells were scraped in 30 μl 250 mM Tris (pH 8.0) and then lysed by freezing and thawing in a dry ice/ethanol bath. Cell-free lysates (24 μl) were obtained by centrifugation at 15,000 g for 5 min at 4° C. and then diluted with 5× cell culture lysis buffer (Promega). Luciferase and β-gal activities were quantitated with 10 μl of lysates using Luciferase assay system (Promega) and Luminescent β-galactosidase detection kit II (Clontech) respectively. In the experimental model, the ratios of Luciferase/β-gal in cells transfected with vector alone ranged from 0.18 to 0.19 and was normalized to 1. Because cytokines induce the promoter upstream of β-gal, in cytokine-stimulated cells, luciferase activity was presented/mg of total protein the levels normalized with stroma transfected with vector alone. Total protein was determined using standard techniquees well known in the art.
Mutations were performed with a mutagenesis kit (Stratagene, La Jolla, Calif.). The desired mutant sequences (Table 1) were synthesized within 40 nt in the forward and reverse directions and then used in PCR with pGL3 containing wild type Upstream/N0. After PCR amplification, mutation was verified by identification of Apa L1 within CRE-like mutant and the loss of Xho 1 in CRE mutant.

β-PPT-I mRNA = assay: Quantitative RT-PCR in stimulated bone marrow stroma; type: cell-based, human; settings: for β-PPT-I (molecules/μg total RNA): 8 ng/ml SCF and/or 10 nM CP-99,994
Description: (§2) In a second embodiment of the present invention, bone marrow stroma was stimulated in serum-free α-MEM supplemented with Insulin-transferrin-selenium-A (Life Technologies). Quantitative RT-PCR with total RNA, extracted from bone marrow stroma and construction of standard DNA was performed as described in Singh, D., supra. The end sequences of the standard DNA contained gene-specific sequences that are complementary for the reaction primers. The primers in the standard DNA flank neutral DNA. Total RNA (2 μg) was reverse transcribed and 200 ng cDNA used in PCR with specific oligonucleotide primers for PPT-I, NK-1 or NK-2. Standard DNA, log10 fold dilutions, ranged between 10^−2 to 10^−6 attomole/L. Each unknown sample was assayed with a particular concentration of standard DNA in the same reaction tube. PCR products (10 μl) were separated by electrophoresis on 1.5% agarose containing ethidium bromide and the densities of the DNA bands quantitated with a Fluorimager (Molecular Dynamics, Sunnyvale, Calif.) and then analyzed with ImageQuant software. A standard curve was established for each unknown sample: band densities of unknown/standard DNA vs. Log10 standard DNA concentration was used to determine the concentration of RNA molecules in the unknown samples. The concentration of the unknown sample was selected at the concentration in which the ratio of the unknown and standard were equivalent.
as §1
Confluent bone marrow stroma was stimulated with 25 ng/ml rhIL-1α or 10 ng/ml SCF for 24 h. Poly A RNA was isolated from total RNA by selection (2×) on oligo-dT cellulose (Life Technologies). The cellulose column was washed once with 10 mM Tris, pH 7.0; 0.5 M NaCl; […] and once with 10 mM Tris, pH 7.0; 0.2 M NaCl; […]. Poly A RNA was eluted with 10 mM Tris (pH 7.0) and […]. RNA was precipitated by standard techniques and then resuspended in DEPC-treated water. The purity was verified by the absence of rRNA.

MDAMB-330 = assay: Clonogenic assay, proliferation of breast cancer cell line; type: cell-based; settings: 1 mM antagonist, 2 weeks; for # of colonies/10^3 cells (±SD): methyl cellulose matrix
Description: (§3) Clonogenic assays studied the proliferation of breast cancer cell lines. Duplicate cultures were performed with 10^3 cells/ml in 1.2% methylcellulose matrix that contained various concentrations (between about 100 to 0.001 mM) of NK-1, NK-2 or (NK-1+NK-2) antagonists. Baseline cultures contained media alone. For each cell line, the assay contained the appropriate culture media. Cultures were incubated for 2 wk at 37° C. This was followed by enumeration of colonies that contained more than 10 cells. In a highly preferred embodiment, the concentration of antagonist is 1 nM.
(§4) Increased expression of PPT-I and NK-1 in breast cancer cells (Tables 1 and 2) led to the next set of experiments. A functional role for these genes in breast cancer is established by determining whether PPT-I peptides, endogenously produced by breast cancer cells, can induce their proliferation through autocrine and/or paracrine mechanisms. This question was addressed in six different experiments using clonogenic assay. […] NK-1 or NK-2 antagonists blunted breast cancer cell proliferation by approximately […] when compared to cultures with media alone (Table 4). […] There was no significant difference (p>0.5) in cell proliferation when normal mammary epithelial cells (MCF12A and H5578Bst) were cultured with the antagonists. […] Reduced colony formation was not due to necrosis since >99% of the cells were trypan blue negative in suspension cultures, performed for two weeks with antagonists.

BT474 = assay: as above; type: cell-based; settings: 1 mM antagonist, 2 weeks; for # of colonies/10^3 cells (±SD): methyl cellulose matrix
Description: as §3, §4

ZR7530 = assay: as above; type: cell-based; settings: 1 mM antagonist, 2 weeks; for # of colonies/10^3 cells (±SD): methyl cellulose matrix
Description: as §3, §4

T47D = assay: as above; type: cell-based; settings: 1 mM antagonist, 2 weeks; for # of colonies/10^3 cells (±SD): methyl cellulose matrix
Description: as §3, §4

Du4475 = assay: as above; type: cell-based; settings: 1 mM antagonist, 2 weeks; for # of colonies/10^3 cells (±SD): methyl cellulose matrix
Description: as §3, §4

Hs578Bst = assay: Clonogenic assay, nontransformed mammary epithelial cells; type: cell-based; settings: 1 mM antagonist, 2 weeks; for # of colonies/10^3 cells (±SD): methyl cellulose matrix
Description: as §3, §4

MCF12A = assay: as above; type: cell-based; settings: 1 mM antagonist, 2 weeks; for # of colonies/10^3 cells (±SD): methyl cellulose matrix
Description: as §3, §4

NK-2 mRNA = assay: Quantitative RT-PCR in stimulated bone marrow stroma; type: cell-based, human; settings: BM stroma; 8 ng/ml SCF or 2.5 ng/ml IL-1a; 16 h; serum-free α-MEM
Description: as §2, §1

NK-1 mRNA = assay: as above; type: cell-based, human; settings: BM stroma; 8 ng/ml SCF or 2.5 ng/ml IL-1a; 16 h; serum-free α-MEM
Description: as §2, §1

Molecule | β-PPT-I (molecules/μg total RNA) (β-PPT-I mRNA; BM stroma, 1 nM SP, 16 h) | percentage of cells cultured in media alone (MDAMB-330) [%] | # of colonies/10^3 cells (±SD) (MDAMB-330) [colonies/10^3 cells] | percentage of cells cultured in media alone (BT474) [%] | # of colonies/10^3 cells (±SD) (BT474) [colonies/10^3 cells] | percentage of cells cultured in media alone (ZR7530) [%] | # of colonies/10^3 cells (±SD) (ZR7530) [colonies/10^3 cells] | percentage of cells cultured in media alone (T47D) [%] | # of colonies/10^3 cells (±SD) (T47D) [colonies/10^3 cells] | percentage of cells cultured in media alone (Du4475) [%] | # of colonies/10^3 cells (±SD) (Du4475) [colonies/10^3 cells] | # of colonies/10^3 cells (±SD) (Hs578Bst) [colonies/10^3 cells] | percentage of cells cultured in media alone (MCF12A) | # of colonies/10^3 cells (±SD) (MCF12A) [colonies/10^3 cells] | further results
COc1ccccc1CN[C@H]1CCCN[C@H]1c1ccccc1 [CP-99,994] | <1 |  |  |  |  |  |  |  |  |  |  |  |  |  | luciferase activity in SCF-stimulated cells in the presence of the antagonist ([1]; 10 nM CP-99,994, SCF-stimulated transfected stroma): significantly reduced; luciferase activity, antagonist alone compared to transfectants with vector alone ([1]; antagonist alone): did not affect; reduction of SP-induced β-PPT-I (β-PPT-I mRNA; 10 nM CP-99,994, 1 nM SP): 7 fold; effect on induction of endogenous PPT-I by SCF (β-PPT-I mRNA; BM stroma, SCF + CP-99,994): bluned
substance P (RPKPQQFFGLM) [SP, major PPT-I peptide, preferred ligand for NK-1 (Sigma)] | 284 ± 12 |  |  |  |  |  |  |  |  |  |  |  |  |  | 
CC(=O)NC1(c2ccccc2)CCN(CC[C@H](CN(C)C(=O)c2ccccc2)c2ccc(Cl)c(Cl)c2)CC1 [SR48968] |  | 38 | 64 ± 4 | 36 | 65 ± 8 | 36 | 60 ± 10 | 43 | 65 ± 7 | 38 | 60 ± 5 | 210 ± 11 | 95% | 200 ± 9 | percentage of cells cultured in media alone (Hs578Bst): 105%
COc1ccccc1CN[C@H]1C2CCN(CC2)[C@H]1C(c1ccccc1)c1ccccc1 [CP96,345] |  | 38 | 65 ± 5 | 39 | 70 ± 5 | 41 | 68 ± 8 | 40 | 60 ± 4 | 39 | 63 ± 6 | 201 ± 12 | (94%) | 198 ± 18 | 
B1 |  |  |  |  |  |  |  |  |  |  |  |  |  |  | increase in luciferase activities compared to unstimulated cells ([1]; pGL3-Upstream/N0 wild type, optimal SCF or IL-1a, 10 h): 3 fold; induction of luciferase in cells transfected with the double mutants ([1]; pGL3-Upstream/N0 with mutant CRE and CRE-like): no significant induction; NK-2 mRNA (NK-2 mRNA): 968 ± 26 Molecules/μg total RNA; NK-1 mRNA (NK-1 mRNA): 8106 ± 91 Molecules/μg total RNA; β-PPT-I mRNA (β-PPT-I mRNA; BM stroma, 8 ng/ml SCF or 2.5 ng/ml IL-1a, 16 h, serum-free α-MEM): 4849 ± 121 Molecules/μg total RNA; molecules of β-PPT-I/μg poly A (β-PPT-I mRNA; poly A RNA from stroma stimulated with 25 ng/ml rhIL-1α or 10 ng/ml SCF for 24 h, n=6): 250,100±980 molecules of β-PPT-I/μg poly A
